The record followed here is ChEMBL document CHEMBL1144365, “Benzodipyrazoles: a new class of potent CDK2 inhibitors” (Bioorg Med Chem Lett, 2005).

The structures appear in SMILES notation.

Molecular target in one assay: not listed separately
In words: Inhibition of Glycogen synthase kinase-3 beta.
In turn, `CC(C)CC1Cc2c[nH]nc2-c2c[nH]nc21` (configuration not stated) registered a half-maximal inhibitory concentration (IC50) above 10000 nM.
The same measure, in the same setting: for `Cc1ccc(-n2nc(C(N)=O)c3c2-c2c[nH]nc2CC3)cc1` the value was 460 nM; for `Cc1ccc(-n2nc(C(N)=O)c3ccc4[nH]ncc4c32)cc1`, 23 nM.

The next assay deals with Cyclin-dependent kinase 2/cyclin A (Homo sapiens, UniProt P24941).
Description: Inhibition of Cyclin A-cyclin-dependent kinase 2
Turning to `C=CCONC(=O)c1nn(-c2ccc(OC)cc2)c2c1CCc1[nH]ncc1-2`, the concentration for half-maximal inhibition (IC50) was determined as 4500 nM.
The compound `CCCCNS(=O)(=O)n1nc(C(=O)O)c2c1-c1c[nH]nc1CC2` registered an IC50 of 1200 nM.
The compound `CS(=O)(=O)c1ccc(-n2nc(C(N)=O)c3c2-c2cn[nH]c2CC3)cc1` showed an IC50 of 30 nM.
On the same count and under the same terms, for `CC(C)CC1Cc2c[nH]nc2-c2c[nH]nc21` (configuration not stated) the value was 87 nM; for `CCCCNS(=O)(=O)n1nc(C(=O)NC)c2ccc3[nH]ncc3c21`, 610 nM; for `CNS(=O)(=O)c1ccc(-n2nc(C(N)=O)c3ccc4[nH]ncc4c32)cc1`, 20 nM.
The compound `COc1ccc(-n2nc(N)c3ccc4[nH]ncc4c32)cc1` registered an IC50 above 10000 nM.
Turning to `NC(=O)c1nn(-c2ccc(OC(F)(F)F)cc2)c2c1CCc1[nH]ncc1-2`, inhibition was half-maximal at 510 nM (IC50).
For `NC(=O)c1nn(-c2ccc(C3=NCC=N3)cc2)c2c1CCc1n[nH]cc1-2`, the half-inhibitory concentration (IC50) was 250 nM.
Same read-out and setting: the figure for `NC(=O)c1nn(-c2ccc(C3=NCC=N3)cc2)c2c1ccc1[nH]ncc12` is 75 nM.
As to `CCCCNS(=O)(=O)n1nc(C(=O)NC)c2c1-c1c[nH]nc1CC2`, the IC50 stood at 600 nM.
Same read-out and setting: the figure for `COc1ccc(-n2nc(C(=O)NN)c3ccc4[nH]ncc4c32)cc1` is 210 nM.
On the same count and under the same terms, the figure for `NC(=O)c1nn(-c2ccc(Cl)cc2)c2c1CCc1[nH]ncc1-2` is 160 nM; for `NC(=O)c1nn(CCO)c2c1CCc1[nH]ncc1-2` it is 1150 nM.
`CNS(=O)(=O)c1ccc(-n2nc(C(N)=O)c3c2-c2cn[nH]c2CC3)cc1`: the IC50 stood at 40 nM.
The compound `CCOC(=O)c1nn(-c2ccc(C)cc2)c2c1CCc1[nH]ncc1-2` came in with a half-maximal inhibitory concentration (IC50) of 8500 nM.
Still for that read-out and setting: the figure for `COc1ccc(-n2nc(C#N)c3ccc4[nH]ncc4c32)cc1` is 1750 nM.
Still for that read-out and setting: for `CCCCNS(=O)(=O)n1nc(C(N)=O)c2ccc3[nH]ncc3c21` the value was 2 nM; for `COc1ccc(-n2nc(C(=O)NN)c3c2-c2cn[nH]c2CC3)cc1`, 2100 nM; for `CCOC(=O)c1nn(-c2ccc(OC)cc2)c2c1CCc1[nH]ncc1-2`, 8100 nM.
In the case of `N#Cc1ccc(-n2nc(C(N)=O)c3c2-c2cn[nH]c2CC3)cc1`, the concentration for half-maximal inhibition (IC50) came to 190 nM.
On to `COc1ccc(-n2nc(C(=O)O)c3c2-c2cn[nH]c2CC3)cc1`, for which the half-maximal inhibitory concentration (IC50) is 2100 nM.
Still for that read-out and setting: for `CCCCNS(=O)(=O)n1nc(C(N)=O)c2c1-c1c[nH]nc1CC2` the value was 210 nM; for `C=CCONC(=O)c1nn(S(=O)(=O)NCCCC)c2c1ccc1[nH]ncc12`, 200 nM; for `CCCCNS(=O)(=O)c1ccc(-n2nc(C(=O)OCC)c3c2-c2cn[nH]c2CC3)cc1`, 10000 nM.
Same read-out and setting: for `CN1CCN(S(=O)(=O)c2ccc(-n3nc(C(N)=O)c4c3-c3cn[nH]c3CC4)cc2)CC1` the value was above 10000 nM; for `CN1CCN(S(=O)(=O)c2ccc(-n3nc(C(N)=O)c4ccc5[nH]ncc5c43)cc2)CC1`, 150 nM; for `COc1ccc(-n2nc(C(=O)O)c3ccc4[nH]ncc4c32)cc1`, 210 nM.
On the same count and under the same terms, the figure for `C=CCONC(=O)c1nn(S(=O)(=O)NCCCC)c2c1CCc1n[nH]cc1-2` is 2850 nM; for `CCOC(=O)c1nn(-c2ccc(OC)cc2)c2c1ccc1[nH]ncc12` it is 7500 nM.
As for `NC(=O)c1nn(-c2ccc(C(F)(F)F)cc2)c2c1CCc1[nH]ncc1-2`, it took 80 nM to reach half-maximal inhibition (IC50).
On the same count and under the same terms, for `NC(=O)c1nn(-c2cccnc2)c2c1CCc1[nH]ncc1-2` the value was 1600 nM; for `CC(=O)c1nn(-c2ccc(C)cc2)c2c1CCc1[nH]ncc1-2`, 900 nM; for `Cc1cccc(-n2nc(C(N)=O)c3ccc4[nH]ncc4c32)c1`, 9 nM.

One may read the IC50 as the concentration at which inhibition is half-maximal. Read a low IC50 as greater potency in that assay.
